Measurements as given in patent US20050142067A1, “Zintrodes, multitrodes and uses thereof” (priority 2003, published 2005).
Entries after “also recorded” stand apart in the source; their conditions may differ. Where two headings read alike, the source gives them in different places.

What was measured:
holoCA = holoCA (Homo sapiens, UniProt P00918); assay: Binding of fluorescent reporter to holoCA; details: order of magnitude in words
Description: The measurement is based on a literature method (44, 51). Aliquots of a 1 μM solution of the CA protein are mixed with several concentrations of DPSA, ranging from 1 nM to 10 μM. After 30 minutes of incubation, the fluorescence emission spectrum is measured with excitation at 365 nm and emission at 400-700 nm. Taking the intensity at 560 nm, which is the emission max of an apoCA-DPSA conjugate, at the highest concentration aliquot to represent 99% fractional saturation, and 1% at the lowest concentration aliquot, the fractional saturation is plotted as a function of the DPSA concentration on a logarithmic scale, and the data is fit to a single binding isotherm, e.g. fraction bound=KD/(1+KD) using Kaleidagraph (Synergy Software), or a similar program.
Because of the nature of the sulfonamide binding as a fourth ligand to the active site, DPSA binds as a 1:1 complex at realistic aliquot concentrations. If the fractional saturation is not near 1.0 at higher DPSA concentration because the DPSA binds more weakly to the variant, the curvature of the isotherm will not reach the peak intensity.

CA-Zn (holoCA) = CA-Zn (holoCA) (Homo sapiens, UniProt P00918); assay: Screening of fluorescent reporters with CA and zinc (fluorescence intensity)
Description: (§1) Stock solutions of the fluorescent reporter were prepared in alcohol and diluted 1000-fold in the final measuring cuvette. Carbonic anhydrase protein (CA) was “apo-ized” as per a standard procedure (50). Zinc was added to a solution of the CA in the presence of the reporter and the change in fluorescence intensity and wavelength of the reporter were measured on a Spex DM-1B fluorescence spectrophotometer using He—Cd laser excitation.

[1] = Spectral characteristics of reporters for CA-based zinc biosensor; type: physicochemical
Description: as §1

[2] = Leakage of reporter through microdialysis membrane; type: physicochemical; details: microdialysis chamber (sock), HEPES external medium
Description: A solution of DPSA was placed in the “sock” and the fluorescence of DPSA inside the dialysis chamber and in the external HEPES buffer solution was measured (FIG. 4A). The chamber was then filled with 10 μM apoCA and the external solution with […] HEPES buffer and 10 μM free zinc (FIG. 4B). Since the microdialysis membrane is impermeable to apoCA, any zinc that passes through the membrane is then trapped inside upon binding to apoCA. […] For example, if free zinc in the biological medium is 2 nM, then 0.90 nM zinc will be trapped within the “sock.”
However, DNSA “leaks out” of the membrane. DNSA reporter was covalently bound to amino-CPG beads using a 12 C or a 14 C tether and placed into the microdialysis membrane or “sock”. […] The DNSA-CPG bead system comprises a “molecular tether” means of entrapment (FIG. 7).

[3] = Fluorescence response to zinc of dye in micropolymer spots on glass slides; details: dye in polymer on glass slide, HEPES pH ˜7.4, 500 μM Zn^2+
Description: A proprietary micropolymer was obtained from Gary Kiefer of DOW. Two fluorescence sensors were mixed individually with the micropolymer. One was TFLZN which has a Kd of 10 μM for binding zinc and which is strongly hydrophilic. The other was ZP1, which is more lipophilic, binds zinc with a Kd of 0.5 nM, and is very bright with a quantum yield of 0.9. After mixing, the two solutions were spotted onto acid-cleaned glass slides in spots of 2.5 and 10.0 μL and allowed to cure overnight.
To evaluate the coatings, one microliter of HEPES (50 mM, pH ˜7.4) was put onto one spot on the polymer/probe coatings and a second spot with one microliter of the same HEPES plus 1 microliter of ZnSO4 (final [Zn^2+], 500 μM) was put next to the first spot. Images of the both spots were captured using the exact same camera settings for both spots. […] When the actual fluorescent intensity of the spots was measured using Photoshop, it was observed that the zinc-added spot was from 4-5-fold brighter that the HEPES spot. […] The change in fluorescence was not timed, but in this microscope-measuring system, the change appeared essentially instantaneously, i.e., within the few seconds it took to put the slide back in place, re-focus the microscope, and capture the second image. […] Furthermore, washing the spots with pure HEPES again lowered the fluorescence back to essentially the pre-zinc levels. […]

[4] = read-out: Kd for binding zinc; cited from earlier work
[5] = pZn meter calibration with metal buffer (ZP1); type: binding; details: 50 μM bicine metal buffer, [ZP1]=100 nM; read-out: KD, fluorescence intensity midpoint
Description: In calibrating the pZn meter using a metal buffer to control free zinc (FIG. 16A), the [ZP1] is <<than the effective [Zn2+ free] because the metal buffer, 50 μM bicine, can supply a large total number of Zn ions, while keeping the concentration of zinc ions fixed. Thus, in this calibration, the fluorescence intensity midpoint is approximately equal to the KD, 0.5 nM where [ZP1]=100 nM. In a second calibration, a ZP1 concentration of 20 nM of zinc, as ZnSO4, is used (FIG. 16B). Because no metal buffer is used and because the ZP1 concentration is much higher than the zinc concentration, this is a stoichiometric or “percent occupancy” titiration in which the fluorescence intensity is simply proportional to the molar ratio, [Zn]:[ZP1}.

[6] = cited from earlier work
rabbit brain = details: 1 mM in dialysis fluid, 10 minutes infusion, anesthetized rabbits, dorsal hippocampus
Description: The microdialysis probes were aimed at the dorsal hippocampus in two acutely prepared rabbits, as described above, and the rabbits were anesthetized with isofluorane.
This caused spermine NONOate to release NO*, some of which presumably passed through the dialysis membrane and into the brain as a reverse dialysis procedure. The infusion lasted 10 minutes.

SMILES | binding to holoCA (holoCA) | increase of fluorescent yield upon binding to holo-CA (CA-Zn (holoCA)) [fold] | Abs max [1] [nm] | Emm max [1] [nm] | Molar ε [1] | leakage out of microdialysis membrane [2] | fluorescence of zinc-added spot versus HEPES spot [3] | Kd [4] [nM] | quantum yield ([6]; after zinc binding) | quantum yield ([6]; before zinc binding) | also measured
CN(C)c1cccc2c(S(N)(=O)=O)cccc12 [DNSA, dansylamide] | low micromole | 6 | 332 | 560 | 4.7 × 10^3 cm^−1M^−1 | leaks out |  |  |  |  | 
CN(C)c1ccc(-c2cnc(-c3ccc(S(N)(=O)=O)cc3)o2)cc1 [DPSA, dapoxylsulfonamide] | low picomole | 20 | 355 | 605 | 2.2 × 10^4 cm^−1M^−1 | membrane impermeable; also recorded: does not leak out |  |  |  |  | fluorescence intensity (CA-Zn (holoCA); 1 μM DPSA, alone or with the named CA): 70 units; absorption λmax [1]: 340 nm
COc1cc(NS(=O)(=O)c2ccc(C(=O)O)cc2)c2nc(C)ccc2c1 [TFLZN] |  |  |  |  |  |  | ~15 fold | 10000 |  |  | 
O=C(O)c1ccccc1-c1c2cc(Cl)c(=O)c(CN(Cc3ccccn3)Cc3ccccn3)c-2oc2c(CN(Cc3ccccn3)Cc3ccccn3)c(O)c(Cl)cc12 [ZP1, 9-(o-carboxyphenyl)-2,7-dichloro-4,5-bis[bis(2-pyridylmethyl)-aminomethyl]-6-hydroxy-3-xanthanone] |  |  |  |  |  |  | 4-5 fold | 0.5 | about 0.87 | about 0.39 | Kd [5]: ~0.5 nM; quantum yield ([6]; condition not stated): 0.9; excitation wavelength maximum ([6]; without zinc): 515 nm; excitation wavelength maximum ([6]; zinc bound): 507 nm
O=C(O)c1ccccc1-c1c2cc(Cl)c(=O)cc-2oc2c(CNc3ccccc3CN(Cc3ccccn3)Cc3ccccn3)c(O)ccc12 [ZP4, 9-(o-carboxyphenyl)-2-chloro-5-[2-{bis(2-pyridylmethyl)aminomethyl}-N-methylaniline]-6-hydroxy-3-xanthanone] |  |  |  |  |  |  |  |  | about 0.34 | about 0.06 | pKa value ([6]; relative to Zinpyr 1 and Zinpyr 2): lower
NCCCNCCCCN(CCCN)/[N+]([O-])=N/O [spermine NONOate] |  |  |  |  |  |  |  |  |  |  | release of free zinc into dialysate (rabbit brain): vigorous release of free zinc
